# Test results reported in patent US6479531B1, “Gastrin and cholecystokinin receptor ligands” (James Black Foundation Limited, priority 1998, dated 2002).
# Legend:
# CCKB receptor = biological target: T1, CCKB receptor (Mus musculus, UniProt P56481); assay: CCKB receptor radioligand binding assay in mouse cortical membranes; conditions: [125I]-CCK8(S) 200 pM, 150 min at 21±3°; for Ki: read-out: CCKB pKi (converted)
# T1 construct: The whole brains from male mice (CD1 22-25 g; Charles River) were removed; from tissue; host or cells: cerebral cortex membranes of male CD1 mice
# T1 sequence (P56481 1-453): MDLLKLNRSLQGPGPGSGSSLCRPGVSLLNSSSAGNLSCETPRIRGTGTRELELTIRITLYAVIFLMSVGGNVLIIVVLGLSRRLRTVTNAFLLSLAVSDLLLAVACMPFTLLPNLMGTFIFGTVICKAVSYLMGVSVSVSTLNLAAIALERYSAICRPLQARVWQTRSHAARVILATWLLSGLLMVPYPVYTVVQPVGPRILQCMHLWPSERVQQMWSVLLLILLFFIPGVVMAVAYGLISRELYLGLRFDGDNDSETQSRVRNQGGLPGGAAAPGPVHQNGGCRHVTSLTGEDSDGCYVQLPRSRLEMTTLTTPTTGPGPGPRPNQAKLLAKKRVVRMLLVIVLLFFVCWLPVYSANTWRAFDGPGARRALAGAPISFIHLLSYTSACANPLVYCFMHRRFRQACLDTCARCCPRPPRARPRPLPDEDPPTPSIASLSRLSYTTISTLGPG
# Procedure, shortened: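 Bound radioactivity was gamma-counted after rapid GF/B filtration and cold 50 mM Tris-HCl (pH 7.4) washes. The tissue was cerebral cortex from male CD1 mice, prepared as twice-centrifuged membranes in pH 7.2 HEPES/NaCl/KCl/MgCl2/EDTA buffer with bacitracin at 20 mg/ml original wet weight.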
# gastrin receptor = biological target: T2, gastrin receptor (Rattus norvegicus, UniProt P30553); assay: gastrin antagonist activity in immature rat stomach assay (pentagastrin dose-response, acid secretion); conditions: isolated immature rat stomach, cumulative pentagastrin dose-response curves; for Kb: read-out: Gastrin pKb (converted)
# T2 construct: The stomach was excised and flushed with ca. 1 ml of unbuffered physiological saline solution; from tissue; host or cells: isolated whole stomach of immature rats (ca. 21 days old)
# T2 sequence (P30553 1-452): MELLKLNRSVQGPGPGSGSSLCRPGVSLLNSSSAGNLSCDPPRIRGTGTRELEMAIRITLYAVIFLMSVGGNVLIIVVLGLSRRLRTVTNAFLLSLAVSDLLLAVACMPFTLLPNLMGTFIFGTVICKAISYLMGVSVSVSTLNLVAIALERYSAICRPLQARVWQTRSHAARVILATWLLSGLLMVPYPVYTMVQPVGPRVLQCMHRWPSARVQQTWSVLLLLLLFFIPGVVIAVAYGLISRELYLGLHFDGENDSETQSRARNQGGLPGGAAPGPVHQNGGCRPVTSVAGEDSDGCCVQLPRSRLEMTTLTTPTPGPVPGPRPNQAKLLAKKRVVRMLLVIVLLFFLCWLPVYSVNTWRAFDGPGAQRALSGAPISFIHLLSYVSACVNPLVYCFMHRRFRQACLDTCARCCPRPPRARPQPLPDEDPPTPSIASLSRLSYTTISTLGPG
# Procedure, shortened: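 Gastrin antagonism was measured as the effect on cumulative pentagastrin dose-response curves of acid output, recorded by pH electrode in the perfusate of an excised immature rat stomach (ca. 21 days old). Test compound was placed in the serosal bath (37°, 3×10^−8 M 5-methylfurmethide) 60 min before pentagastrin.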
Ki (CCKB receptor) [nM],Kb (gastrin receptor) [nM],Compound,CCKB pKi (CCKB receptor),Gastrin pKb (gastrin receptor)
,,5-[(2-Cycloheptylmethyl--phenyl-1H-pyrrole-3-carbonyl)-amino]-isophthalic Acid [Example 13],6.44,6.21
47.9,8.32,"CC1(C)C2CC[C@]1(C)C(c1nc(C(=O)Nc3cccc(C(=O)O)c3)c(CCC34CC5CC(CC(C5)C3)C4)[nH]1)C2 (mixture of isomers) [Example 205, 3-{[5-(2-Adamantan-1-yl-ethyl)-2-[(1R,2RS)-1,7,7-trimethyl-bicyclo[2.2.1]hept-2-yl]-1H-imidazole-4-carbonyl]-amino}-benzoic Acid]",,
31.6,2.24,"O=C(O)c1cccc(NC(=O)c2nc(C3CC4CCC3C4)[nH]c2CCC23CC4CC(CC(C4)C2)C3)c1 (racemic) [Example 114, (±)-endo-3-{[5-(2-Adamantan-1-yl-ethyl)-2-bicyclo[2.2.1]hept-2-yl-1H-imidazole-4-carbonyl]-amino}-benzoic Acid]",,
25.7,6.31,"O=C(O)c1cccc(NC(=O)c2nc(C3CC4CCC3C4)[nH]c2CCC23CC4CC(CC(C4)C2)C3)c1 (racemic) [Example 115, (±)-exo-3-{[5-(2-Adamantan-1-yl-ethyl)-2-bicyclo[2.2.1]hept-2-yl-1H-imidazole-4-carbonyl]-amino}-benzoic Acid]",,
13.5,2.14,"O=C(O)c1cccc(NC(=O)c2nc(C3CC4C=CC3C4)[nH]c2CCC23CC4CC(CC(C4)C2)C3)c1 (racemic) [Example 116, (±)-endo-3-{[5-(2-Adamantan-1-yl-ethyl)-2-bicyclo[2.2.1]hept-5-ene-2-yl-1H-imidazole-4-carbonyl]-amino}-benzoic Acid]",,
36.3,3.63,"O=C(O)c1cccc(NC(=O)c2nc(C3CC4C=CC3C4)[nH]c2CCC23CC4CC(CC(C4)C2)C3)c1 (racemic) [Example 117, (±)-exo-3-{[5-(2-Adamantan-1-yl-ethyl)-2-bicyclo[2.2.1]hept-5-ene-2-yl-1H-imidazole-4-carbonyl]-amino}-benzoic Acid]",,
42.7,8.13,"CC(Cc1[nH]c(C2CCCCC2)nc1C(=O)Nc1cccc(C(=O)O)c1)C12CC3CC(CC(C3)C1)C2 (racemic) [Example 132, (±)-3-{[5-(2-Adamantan-1-yl-propyl)-2-cyclohexyl-1H-imidazole-4-carbonyl]-amino}-benzoic Acid]",,
2.09,1.1,"Cc1ccc(NC(=O)c2nc(C3CC4CCC3C4)[nH]c2CCC23CC4CC(CC(C4)C2)C3)cc1C(=O)O (racemic) [Example 209, (±)-endo-5-{[5-(2-Adamantan-1-yl-ethyl)-2-bicyclo[2.2.1]hept-2-yl-1H-imidazole-4-carbonyl]-amino}-2-methyl-benzoic Acid]",,
1.41,178,"CC(C(=O)O)c1cccc(NC(=O)c2nc(C3CCCCC3)[nH]c2CCC23CC4CC(CC(C4)C2)C3)c1 (racemic) [Example 255, (±)-2-(3-{[5-(2-Adamantan-1-yl-ethyl)-2-cyclohexyl-1H-imidazole-4-carbonyl]-amino}-phenyl)-propionic Acid]",,
191,468,"O=C(O)c1cc(NC(=O)c2cc(-c3ccccc3)[nH]c2CC23CC4CC(CC(C4)C2)C3)cc(C(=O)O)c1 [Example 1, 5-[(2-Adamantan-1-ylmethyl-5-phenyl-1H-pyrrole-3-carbonyl)-amino]-isophthalic Acid]",,
5.37,,"Cc1ccc(NC(=O)c2nc(-c3c(Cl)cccc3Cl)[nH]c2CCC23CC4CC(CC(C4)C2)C3)cc1C(=O)O [Example 149, 5-{[5-(2-Adamantan-1-yl-ethyl)-2-(2,6-dichlorophenyl)-1H-imidazole-4-carbonyl]-amino}-2-methyl-benzoic Acid]",,
1660,,"Cc1ccc(NC(=O)c2c(CCC34CC5CC(CC(C5)C3)C4)nc(-c3ccccc3C)n2C)cc1C(=O)O [Example 162, 5-{[5-(2-Adamantan-1-yl-ethyl)-3-methyl-2-o-tolyl-3H-imidazole-4-carbonyl]-amino}-2-methyl-benzoic Acid]",,
1450,,"Cc1ccccc1-c1nc(C(=O)Nc2cccc(C(=O)O)c2)c(CC23CC4CC(CC(C4)C2)C3)[nH]1 [Example 170, 3-[(5-Adamantan-1-ylmethyl-2-o-tolyl-1H-imidazole-4-carbonyl)-amino]-benzoic Acid]",,
1860,,"O=C(O)c1cccc(NC(=O)c2nc(-c3ccncc3)[nH]c2CCC23CC4CC(CC(C4)C2)C3)c1 [Example 180, 3-{[5-(2-Adamantan-1-yl-ethyl)-2-pyridine-4-yl-1H-imidazole-4-carbonyl]-amino}-benzoic Acid]",,
676,,"Cc1ncccc1-c1nc(C(=O)Nc2cccc(C(=O)O)c2)c(CCC23CC4CC(CC(C4)C2)C3)[nH]1 [Example 181, 3-{[5-(2-Adamantan-1-yl-ethyl)-2-(2-methyl-pyridine-3-yl)-1H-imidazole-4-carbonyl]-amino}-benzoic Acid]",,
7590,,"Cc1ccccc1-c1nc(C(=O)Nc2cc(C(=O)O)ccc2Cl)c(CCC23CC4CC(CC(C4)C2)C3)[nH]1 [Example 237, 3-{[5-(2-Adamantan-1-yl-ethyl)-2-o-tolyl-1H-imidazole-4-carbonyl]-amino}-4-chloro-benzoic Acid]",,
5890,,"Cc1ccccc1-c1nc(C(=O)Nc2cc(C(=O)O)ccc2F)c(CCC23CC4CC(CC(C4)C2)C3)[nH]1 [Example 238, 3-{[5-(2-Adamantan-1-yl-ethyl)-2-o-tolyl-1H-imidazole-4-carbonyl]-amino}-4-fluoro-benzoic Acid]",,
2000,,"Cc1ccc(C(=O)O)cc1NC(=O)c1nc(-c2ccccc2C)[nH]c1CCC12CC3CC(CC(C3)C1)C2 [Example 239, 3-{[5-(2-Adamantan-1-yl-ethyl)-2-o-tolyl-1H-imidazole-4-carbonyl]-amino}-4-methyl-benzoic Acid]",,
26.3,,"Cc1ccccc1-c1nc(C(=O)Nc2ccc(C)c(C(=O)O)c2C)c(CCC23CC4CC(CC(C4)C2)C3)[nH]1 [Example 240, 3-{[5-(2-Adamantan-1-yl-ethyl)-2-o-tolyl-1H-imidazole-4-carbonyl]-amino}-2,6-dimethyl-benzoic Acid]",,
537,,"Cc1ccccc1-c1nc(C(=O)Nc2cc(C(=O)O)cc(C(F)(F)F)c2)c(CCC23CC4CC(CC(C4)C2)C3)[nH]1 [Example 243, 3-{[5-(2-Adamantan-1-yl-ethyl)-2-o-tolyl-1H-imidazole-4-carbonyl]-amino}-5-trifluoromethyl-benzoic Acid]",,
182,,"COc1ccc(NC(=O)c2nc(-c3ccccc3C)[nH]c2CCC23CC4CC(CC(C4)C2)C3)cc1C(=O)O [Example 244, 5-{[5-(2-Adamantan-1-yl-ethyl)-2-o-tolyl-1H-imidazole-4-carbonyl]-amino}-2-methoxy-benzoic Acid]",,
302,,"Cc1cc(NC(=O)c2nc(-c3ccccc3C)[nH]c2CCC23CC4CC(CC(C4)C2)C3)cc(C(=O)O)c1 [Example 247, 3-{[5-(2-Adamantan-1-yl-ethyl)-2-o-tolyl-1H-imidazole-4-carbonyl]-amino}-5-methyl-benzoic Acid]",,
25.7,,"Cc1ccccc1-c1nc(C(=O)Nc2ccc(F)c(C(=O)O)c2F)c(CCC23CC4CC(CC(C4)C2)C3)[nH]1 [Example 248, 3-{[5-(2-Adamantan-1-yl-ethyl)-2-o-tolyl-1H-imidazole-4-carbonyl]-amino}-2,6-difluoro-benzoic Acid]",,
